Experimental data from PMC6079014, “Calcium is an essential cofactor for metal efflux by the ferroportin transporter family” (Nature Communications, 2018).

How the values were obtained:
Fpn-C2-E219A = target: T1, Fpn-C2-E219A (Mus musculus, UniProt Q9JHI9, DEL251-290/DEL401-449/E219A); test: Isothermal titration calorimetry, Fpn-C2-E219A mutant; type: binding
T1 construct: generated from full-length mouse Fpn (UniProt: Q9JHI9); GFP (C); made in house; host or cells: Sf9 insect cells (baculovirus)
T1 sequence (Q9JHI9 with tags, fused parts or gaps E219A/DEL251-290/DEL401-449): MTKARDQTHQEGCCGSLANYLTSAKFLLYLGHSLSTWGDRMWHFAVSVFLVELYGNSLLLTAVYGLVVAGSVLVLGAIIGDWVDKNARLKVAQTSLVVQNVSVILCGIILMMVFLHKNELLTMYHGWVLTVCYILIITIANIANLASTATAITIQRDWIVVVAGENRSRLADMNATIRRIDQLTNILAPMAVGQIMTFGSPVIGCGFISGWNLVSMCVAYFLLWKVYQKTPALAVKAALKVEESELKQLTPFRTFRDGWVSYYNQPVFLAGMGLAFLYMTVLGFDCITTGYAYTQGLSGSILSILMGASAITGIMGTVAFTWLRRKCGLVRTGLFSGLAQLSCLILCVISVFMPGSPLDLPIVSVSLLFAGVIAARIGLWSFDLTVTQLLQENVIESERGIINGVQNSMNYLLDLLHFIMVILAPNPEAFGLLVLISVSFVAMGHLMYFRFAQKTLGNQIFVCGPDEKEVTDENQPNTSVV
From the text: To obtain a purified mammalian Fpn protein conducive for biophysical studies, we generated a protein construct with an increased thermal stability (Deshpande et al., 2018). In brief, the construct (Fpn-C2) was generated from full-length mouse Fpn (UniProt: Q9JHI9 [https://www.uniprot.org/uniprot/Q9JHI9]) by deleting two-loop regions (residues 251–290 and 401–449), followed by an overlapping PCR incorporating the E219A mutation to generate Fpn-C2-E219A. […]
For Fpn-C2 and Fpn-C2-E219A purification (Deshpande et al., 2018), Sf9 cells were thawed at room temperature with the addition of 2 μl Benzonase (250 units/μL, Sigma-Aldrich), 1 mM MgSO4, 0.2 mM PMSF, and lysed by a single pass through cooled EmulsiFlex-C3 homogenizer (Avestin). […] The SEC eluted protein was concentrated to ~10 mg/ml as determined by the BCA assay (Thermo Fisher Scientific) method and stored at −80 °C until further use. […]
In each experiment, the protein solution was loaded into the sample cell, and the ligand solution was loaded in the syringe. […] To obtain the effective heat of binding, the heat of dilution, measured by injecting the ligand solution alone into buffer, was subtracted prior to data analysis. […]

human Fpn = target: T2, human Fpn (Homo sapiens, UniProt Q9NP59); test: Radiotracer metal efflux assay in Xenopus oocytes expressing human Fpn; type: cell-based; details: 2 mM extracellular Ca2+ vs 0 mM Ca2+ plus 1 mM EGTA; 50 nl of 50 µM 65Zn injected
T2 construct: expressed in transfected cells; host or cells: Xenopus laevis oocytes injected with Fpn RNA
T2 sequence (Q9NP59 1-571): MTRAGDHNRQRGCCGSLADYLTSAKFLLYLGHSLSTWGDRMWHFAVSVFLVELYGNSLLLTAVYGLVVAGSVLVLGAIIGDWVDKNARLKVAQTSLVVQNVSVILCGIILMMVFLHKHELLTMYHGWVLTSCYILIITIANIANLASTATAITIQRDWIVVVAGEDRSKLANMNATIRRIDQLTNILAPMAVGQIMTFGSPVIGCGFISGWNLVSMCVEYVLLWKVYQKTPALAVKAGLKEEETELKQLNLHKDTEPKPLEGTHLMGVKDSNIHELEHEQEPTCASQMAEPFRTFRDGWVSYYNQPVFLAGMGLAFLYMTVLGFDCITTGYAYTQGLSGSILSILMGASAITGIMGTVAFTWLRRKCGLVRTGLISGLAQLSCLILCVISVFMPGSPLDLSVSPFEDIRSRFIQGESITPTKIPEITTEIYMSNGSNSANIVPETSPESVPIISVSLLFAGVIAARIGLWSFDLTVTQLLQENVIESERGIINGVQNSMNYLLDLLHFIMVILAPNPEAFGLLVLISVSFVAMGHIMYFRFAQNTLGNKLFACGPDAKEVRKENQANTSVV

## [Ca+2] [Ca^2+, calcium]
Fpn-C2-E219A
  Binding to Fpn-C2-E219A by ITC (in words): no binding
Human Fpn
  Effect of extracellular Ca2+ on Fpn-mediated 65Zn efflux: activated
